Measurements from patent US20170253607A1, “LONG-ACTING HIV PROTEASE INHIBITOR” (Shionogi & Co., Ltd., priority 2014, published 2017).

Experiments:
HIV-1 PR = HIV-1 PR (Human immunodeficiency virus type 1 group M subtype B, UniProt P04585); test: HIV-protease inhibitory activity assay (FRET peptide substrate); assay type: biochemical; conditions: Test Example 1
Summary of the method: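 Inhibition of HIV-1 protease was measured as loss of fluorescence dequenching of a HiLyte Fluor 488/QXL 520 peptide at 2 μmol/L, pH 4.8, room temperature, 60 minute reaction. IC50 was derived by nonlinear four-parameter fitting.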

[1] = Protein binding test (equilibrium dialysis, unbound ratio fu in serum); assay type: in vitro ADME; conditions: rat serum, equilibrium dialysis 24 hours, 37° C., 2 μg/mL
Protocol: Assay condition: Evaluation method; Equilibrium dialysis method, Reaction time; 24 hours, Reaction temperature; 37° C., Assay concentration; 2 μg/mL A solution of the compound was added to each serum and mixed to prepare the serum samples with above concentration. The serum sample was put into one side of an equilibrium dialysis apparatus with dialysis membrane and phosphate buffered saline (PBS) was also put to another side of the apparatus. The apparatus was incubated at 37° C. for 24 hours. After incubation, the serum and PBS samples were collected and the compound concentrations in both samples were measured by LC/MS/MS. Fu was calculated by dividing the concentration in PBS by the concentration in the serum.

[2] = Evaluation of total body clearance (CLtot), intravenous administration; assay type: in vivo, Sprague-Dawley (SD); conditions: rat (SD), intravenous administration 0.5-10 mg/kg; CLtot = dose/AUC
Summary of the method: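 Plasma levels quantified by LC/MS/MS after intravenous tail-vein dosing (0.5-10 mg/kg, compound-dependent; n=2-3). AUC from pharmacokinetic analysis; total clearance calculated as dose/AUC.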

SMILES | IC50 (HIV-1 PR) [nM] | rat_fu [1] [%] | rat_CLt [2] [mL/min/kg]
Cc1cc(OCCN(CC(O)C(Cc2ccccc2)NC(=O)OC2COC3(C)OCCC23)S(=O)(=O)c2ccc3ncsc3c2)ccc1-c1sc2c(c1C(=O)O)CC(C)(C)CC2 (stereo not drawn) [Compound I-166] | 8.83 | <0.1 | 0.194
CC(C)CN(CC(O)C(Cc1ccc(OCCNC(=O)c2cc(Cl)cc(Cl)c2O)cc1)NC(=O)OC1COC2(C)OCCC12)S(=O)(=O)c1ccc2c(c1)OCO2 (stereo not drawn) [Compound I-168] | 1.83 | <0.1 | 5.68
CC(C)CN(CC(O)C(Cc1ccc(OCc2ccccc2-c2ccc3c(c2)C(=O)C(c2ccc(F)cc2)C3=O)cc1)NC(=O)OC1COC2(C)OCCC12)S(=O)(=O)c1ccc2ncsc2c1 (stereo not drawn) [Compound I-175] | 2 | <0.1 | 4.44
COc1ccc(S(=O)(=O)N(CC(C)C)CC(O)C(Cc2ccc(OCc3ncc(F)cc3-c3sc4c(c3C(=O)O)CC(C)(C)CC4)cc2)NC(=O)OC2COC3(C)OCCC23)cc1 (stereo not drawn) [Compound I-182] | 1.44 | <0.1 | 3.84
COc1ccc(S(=O)(=O)N(CC(C)C)CC(O)C(Cc2ccc(OCc3nccnc3-c3ccc(-c4sc5c(c4C(=O)O)CC(C)(C)CC5)cc3)cc2)NC(=O)OC2COC3(C)OCCC23)cc1 (stereo not drawn) [Compound I-195] | 2.15 | <0.1 | 6.74
COc1ccc(S(=O)(=O)N(CC(C)C)CC(O)C(Cc2ccc(OCc3ccccc3-c3ncc4c(c3C(=O)O)CCC(C)(C)C4)cc2)NC(=O)OC2COC3(C)OCCC23)cc1 (stereo not drawn) [Compound I-197] | 1.94 | <0.1 | 3.81
COc1ccc(S(=O)(=O)N(CC2CCCC2)CC(O)C(Cc2ccc(OCc3cc(C(F)(F)F)ccc3-c3nc4n(c3C(=O)O)CCCC4)cc2)NC(=O)OC2COC3(C)OCCC23)cc1 (stereo not drawn) [Compound I-205] | 2.03 | <0.1 | 1.68
COc1ccc(S(=O)(=O)N(CC(C)C)CC(O)C(Cc2ccc(OCc3cc(N(C)C)ccc3-c3sc4c(c3C(=O)O)CC(C)(C)CC4)cc2)NC(=O)OC2COC3(C)OCCC23)cc1 (stereo not drawn) [Compound I-206] | 3.38 | <0.1 | 0.162
COc1ccc(S(=O)(=O)N(CC(C)C)C[C@@H](O)[C@H](Cc2ccc(NC3CN(c4ccccc4-c4sc5c(c4C(=O)O)CC(C)(C)CC5)C3)cc2)NC(=O)O[C@H]2CO[C@@]3(C)OCC[C@@H]23)cc1 [Compound I-228] | 3.98 | <0.1 | 0.144
COc1ccc(S(=O)(=O)N(CC(C)C)CC(O)C(Cc2ccc(NCC3=C(c4sc5c(c4C(=O)O)CC(C)(C)CC5)CCCC3)cc2)NC(=O)OC2COC3(C)OCCC23)cc1 (stereo not drawn) [Compound I-231] | 3.91 | <0.1 | 1.02
COc1ccc(S(=O)(=O)N(CC(C)C)CC(O)C(Cc2ccc(N3CCC(Oc4ccccc4-c4sc5c(c4C(=O)O)CC(C)(C)CC5)C3)cc2)NC(=O)OC2COC3(C)OCCC23)cc1 (stereo not drawn) [Compound I-234] | 3.5 | <0.1 | 1.49
COc1ccc(S(=O)(=O)N(CC(C)C)CC(O)C(Cc2ccc(N3CCC(Oc4ccccc4-c4sc5c(c4C(=O)O)CC(C)(C)CC5)C3)cc2)NC(=O)OC2COC3(C)OCCC23)cc1 (stereo not drawn) [Compound I-235] | 3.56 | <0.1 | 4.05
COc1ccc(S(=O)(=O)N(CC(C)C)CC(O)C(Cc2ccc(N(C)CC3=C(c4sc5c(c4C(=O)O)CC(C)(C)CC5)CCCC3)cc2)NC(=O)OC2COC3(C)OCCC23)cc1 (stereo not drawn) [Compound I-236] | 2.9 | <0.1 | 0.763
COc1ccc(S(=O)(=O)N(CC(C)C)CC(O)C(Cc2ccc(NC3CCN(c4ccccc4-c4sc5c(c4C(=O)O)CC(C)(C)CC5)C3)cc2)NC(=O)OC2COC3(C)OCCC23)cc1 (stereo not drawn) [Compound I-238] | 2.52 | <0.1 | 3.05
COc1ccc(S(=O)(=O)N(CC(C)C)CC(O)C(Cc2ccc(N(C)CCCc3ccccc3-c3sc4c(c3C(=O)O)CC(C)(C)CC4)cc2)NC(=O)OC2COC3(C)OCCC23)cc1 (stereo not drawn) [Compound I-240] | 2.02 | <0.1 | 4.5
COc1ccc(S(=O)(=O)N(CC(C)C)CC(O)C(Cc2ccc(NC3Cc4cccc(-c5sc6c(c5C(=O)O)CC(C)(C)CC6)c4C3)cc2)NC(=O)OC2COC3(C)OCCC23)cc1 (stereo not drawn) [Compound I-241] | 2.95 | <0.1 | 0.404

SMILES | IC50 (HIV-1 PR) [nM] | rat_fu [1] [%] | rat_CLt [2] [mL/min/kg]
COc1ccc(S(=O)(=O)N(CC(C)C)CC(O)C(Cc2ccc(NC3Cc4cccc(-c5sc6c(c5C(=O)O)CC(C)(C)CC6)c4C3)cc2)NC(=O)OC2COC3(C)OCCC23)cc1 (stereo not drawn) [Compound I-242] | 3.11 | <0.1 | 0.408
COc1ccc(S(=O)(=O)N(CC(C)C)CC(O)C(Cc2ccc(OCC3=C(c4sc5c(c4C(=O)O)CC(C)(C)CC5)CCCC3)cc2)NC(=O)OC2COC3(C)OCCC23)cc1 (stereo not drawn) [Compound I-243] | 4.24 | <0.1 | 0.477
COc1ccc(S(=O)(=O)N(CC(C)C)C[C@@H](O)[C@H](Cc2ccc(NC[C@H]3CCCC[C@H]3c3sc4c(c3C(=O)O)CC(C)(C)CC4)cc2)NC(=O)O[C@H]2CO[C@@]3(C)OCC[C@@H]23)cc1 [Compound I-247] | 2.25 | <0.1 | 0.148
COc1ccc(S(=O)(=O)N(CC2CCCC2)CC(O)C(Cc2ccc(OCc3nc(C)sc3-c3sc4c(c3C(=O)O)CC(C)(C)CC4)cc2)NC(=O)OC2COC3(C)OCCC23)cc1 (stereo not drawn) [Compound I-248] | 2.26 | <0.1 | 2.47
COc1ccc(S(=O)(=O)N(CC(C)C)CC(O)C(Cc2ccc(NCc3ccc(-c4sc5c(c4C(=O)O)CC(C)(C)CC5)cc3)cc2)NC(=O)OC2COC3(C)OCCC23)cc1 (stereo not drawn) [Compound I-253] | 2.59 | <0.1 | 4.65
COc1ccc(S(=O)(=O)N(CC(C)C)CC(O)C(Cc2ccc(NCc3cc(C#N)ccc3-c3sc4c(c3C(=O)O)CC(C)(C)CC4)cc2)NC(=O)OC2COC3(C)OCCC23)cc1 (stereo not drawn) [Compound I-256] | 2.82 | <0.1 | 3.83
COc1ccc(S(=O)(=O)N(CC(C)C)CC(O)C(Cc2ccc(NCCCc3ccccc3-c3sc4c(c3C(=O)O)CC(C)(C)CC4)cc2)NC(=O)OC2COC3(C)OCCC23)cc1 (stereo not drawn) [Compound I-260] | 2.96 | <0.1 | 0.801
COc1ccc(S(=O)(=O)N(CC(C)C)CC(O)C(Cc2ccc(N(C)CCc3ccccc3-c3sc4c(c3C(=O)O)CC(C)(C)CC4)cc2)NC(=O)OC2COC3(C)OCCC23)cc1 (stereo not drawn) [Compound I-261] | 3.55 | <0.1 | 2.78
COc1ccc(S(=O)(=O)N(CC(C)C)CC(O)C(Cc2ccc(NCCc3ccccc3-c3sc4c(c3C(=O)O)CC(C)(C)CC4)cc2)NC(=O)OC2COC3(C)OCCC23)cc1 (stereo not drawn) [Compound I-262] | 3.95 | <0.1 | 0.343
COc1ccc(S(=O)(=O)N(CC(C)C)CC(O)C(Cc2ccc(CN(C)c3ccc(-c4sc5c(c4C(=O)O)CC(C)(C)CC5)cc3)cc2)NC(=O)OC2COC3(C)OCCC23)cc1 (stereo not drawn) [Compound I-265] | 5.07 | <0.1 | 4.01
COc1ccc(S(=O)(=O)N(CC(C)C)CC(O)C(Cc2ccc(CN(C)Cc3ccc(-c4sc5c(c4C(=O)O)CC(C)(C)CC5)cc3)cc2)NC(=O)OC2COC3(C)OCCC23)cc1 (stereo not drawn) [Compound I-267] | 2.4 | <0.1 | 5.01
COc1ccc(S(=O)(=O)N(CC(C)C)C[C@@H](O)[C@H](Cc2ccc(OCc3ccccc3C(=O)Nc3sc4c(c3C(=O)O)CC(C)(C)CC4)cc2)NC(=O)O[C@H]2CO[C@@]3(C)OCC[C@@H]23)cc1 [Compound I-268] | 4.46 | <0.1 | 0.0553
COc1ccc(S(=O)(=O)N(CC(C)C)CC(O)C(Cc2ccc(NCc3cc(F)ccc3-c3sc4c(c3C(=O)O)CC(C)(C)CC4)cc2)NC(=O)OC2COC3(C)OCCC23)cc1 (stereo not drawn) [Compound I-271] | 2.23 | <0.1 | 2.42
COc1ccc(S(=O)(=O)N(CC(C)C)CC(O)C(Cc2ccc(NCc3ccc(C)cc3-c3sc4c(c3C(=O)O)CC(C)(C)CC4)cc2)NC(=O)OC2COC3(C)OCCC23)cc1 (stereo not drawn) [Compound I-272] | 2.11 | <0.1 | 0.715
COc1ccc(S(=O)(=O)N(CC(C)C)CC(O)C(Cc2ccc(NCc3ccc(OC)cc3-c3sc4c(c3C(=O)O)CC(C)(C)CC4)cc2)NC(=O)OC2COC3(C)OCCC23)cc1 (stereo not drawn) [Compound I-274] | 2.11 | <0.1 | 0.659
